Several values for one entry are separate records, joined by “and”; a condition that tells them apart may be missing. Equal entries are not always repeated. Entries after “also recorded” stand apart in the source; their conditions may differ.
How the values were obtained:
[1] = target: T1, human two-color SERCA2a (2CS) biosensor (Homo sapiens, UniProt P16615, INS508[…]); test: FRET concentration response curves (FLT-FRET) with the 2CS biosensor in live HEK cells; assay type: cell-based
T1 construct: expressed in transfected cells
T1 sequence (P16615 other isoform, or with tags, fused parts or gaps with the stated changes): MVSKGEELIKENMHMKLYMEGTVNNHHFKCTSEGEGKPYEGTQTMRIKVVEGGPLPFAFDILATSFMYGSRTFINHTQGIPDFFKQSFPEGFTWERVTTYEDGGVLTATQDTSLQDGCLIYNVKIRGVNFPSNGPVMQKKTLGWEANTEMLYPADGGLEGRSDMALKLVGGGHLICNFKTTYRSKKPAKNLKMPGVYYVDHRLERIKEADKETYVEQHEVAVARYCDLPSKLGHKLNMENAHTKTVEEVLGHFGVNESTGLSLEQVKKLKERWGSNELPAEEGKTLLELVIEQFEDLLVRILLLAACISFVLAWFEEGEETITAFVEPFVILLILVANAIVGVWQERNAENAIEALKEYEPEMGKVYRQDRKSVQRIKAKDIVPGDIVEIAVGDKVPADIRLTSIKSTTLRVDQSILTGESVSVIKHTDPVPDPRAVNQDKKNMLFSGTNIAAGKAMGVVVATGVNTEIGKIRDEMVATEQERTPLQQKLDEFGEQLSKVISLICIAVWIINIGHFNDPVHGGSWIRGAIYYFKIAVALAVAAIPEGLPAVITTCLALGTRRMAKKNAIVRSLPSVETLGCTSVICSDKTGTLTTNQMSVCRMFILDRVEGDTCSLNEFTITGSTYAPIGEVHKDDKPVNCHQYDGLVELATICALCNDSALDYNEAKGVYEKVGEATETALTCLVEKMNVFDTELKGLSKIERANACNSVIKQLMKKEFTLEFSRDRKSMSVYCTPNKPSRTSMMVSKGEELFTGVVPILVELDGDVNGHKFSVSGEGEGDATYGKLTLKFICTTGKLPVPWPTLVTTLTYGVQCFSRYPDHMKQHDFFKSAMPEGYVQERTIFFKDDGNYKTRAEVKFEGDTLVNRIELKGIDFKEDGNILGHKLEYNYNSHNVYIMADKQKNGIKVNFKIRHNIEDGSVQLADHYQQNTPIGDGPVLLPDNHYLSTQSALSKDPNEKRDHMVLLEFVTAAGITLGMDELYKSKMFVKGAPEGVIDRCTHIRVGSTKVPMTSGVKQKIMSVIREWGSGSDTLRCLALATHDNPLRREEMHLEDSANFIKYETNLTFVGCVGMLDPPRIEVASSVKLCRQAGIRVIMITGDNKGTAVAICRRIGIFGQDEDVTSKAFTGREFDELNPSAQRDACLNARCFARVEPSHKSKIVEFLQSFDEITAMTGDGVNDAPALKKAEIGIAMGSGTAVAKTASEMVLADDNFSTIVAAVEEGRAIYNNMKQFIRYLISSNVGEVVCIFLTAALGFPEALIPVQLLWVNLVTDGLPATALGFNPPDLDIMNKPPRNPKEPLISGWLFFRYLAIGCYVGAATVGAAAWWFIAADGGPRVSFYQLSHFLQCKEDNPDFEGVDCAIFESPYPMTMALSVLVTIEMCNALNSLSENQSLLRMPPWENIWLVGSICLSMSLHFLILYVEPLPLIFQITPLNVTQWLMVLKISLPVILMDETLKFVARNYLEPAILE
From the text: A two-color intramolecular human SERCA2a (2CS) biosensor, based on human cardiac SERCA2a fused to green fluorescent protein (eGFP) and red fluorescent protein (tagRFP) was developed to detect structural changes that are related to the functional changes of SERCA[20],[22],[25]. Briefly, tagRFP was genetically fused to the N-terminus of SERCA (A-domain) and eGFP was inserted as an intrasequence tag before residue 509 in the nucleotide-binding domain (N-domain)[60],[61]. Donor-only and acceptor-only (1CS) biosensors were created in a similar manner as the 2CS biosensor but with the construct containing either only eGFP or only tag-RFP, respectively. […] A null-biosensor construct consisting of eGFP and tagRFP connected by a 32-residue unstructured flexible linker peptide (G32R) was created as described previously[23],[25]. All constructs were cloned into expression vectors containing the genes for antibiotic resistance to G418, puromycin, or blasticidin.
Stable cell lines were generated using either human embryonic kidney (HEK) HEK293 (ATCC, Manassas, VA) or HEK293-6E (National Research Council, Canada) cells. Briefly, cells were transiently transfected with 2CS, 1CS, or G32R null-biosensor plasmids using Lipofecatime 3000 or 293fectin (Thermo Fisher Scientific). Flow cytometry was used to select and enrich for the population of cells expressing respective biosensors. Stable HEK293 cell lines were maintained in phenol red-free DMEM media (Gibco, Waltham, MA) supplemented with 2 mM GlutaMAX (Gibco, Waltham, MA), 10% fetal bovine serum (FBS) (Atlanta Biologicals, Lawrenceville, GA), 1 IU/mL penicillin/streptomycin (Gibco, Waltham, MA), and 250 μg/mL G418 (Fisher Scientific). Stable HEK293-6E cell lines were maintained in F17 media (Sigma Aldrich) supplemented with Kolliphor p188 (Sigma Aldrich, St. Louis, MO), […] GlutaMAX, and either 1 μg/mL puromycin (Invitrogen, Carlsbad, CA) or 2 μg/mL blasticidin (Goldbio) as a selection antibiotic. All cell lines were grown at 37 °C with 5% CO2.
FRET CRC assay plates (0.78–100 μM compound range) with at least ten different compound concentrations were made by adding the appropriate volume of compound or DMSO into black 384 well plates (Greiner Bio-One) using a Mosquito HV (SPTLabTech, United Kingdom). Subsequent Ca^2+-ATPase activity and Ca^2+-transport CRC assay plates (0–50 μM compound range) with repurchased compounds were made in a similar manner using with the Echo 550 (Beckman Coulter) using either 384 well transparent plates (Greiner Bio-One) or black-walled plates with transparent bottoms (Greiner Bio-One), respectively.
On each day of screening, cells were harvested, washed three times with PBS, and centrifuged at 300 g for 5 min. Cells were filtered using a 70 µm cell strainer and diluted to 1–2 × 10^6 cells/mL. Cell concentration and viability were assessed using the Cell countess (Invitrogen) and trypan blue assay. During assays, cells were constantly and gently stirred using a magnetic stir bar at room temperature, keeping the cells in suspension and evenly distributed to avoid clumping. HEK 293-cells expressing 2CS were dispensed at 5 μL or […] per well into assay plates (dispensed into 40 assay plates, each containing 1536 wells) pre-plated with compounds (from a DIVERset 50,000 compound library) using a Multdrop Combi liquid dispenser (Thermo Fisher Scientific, Pittsburg, PA) and sealed until needed. Because the kinetics of membrane permeability, diffusion, and/or binding of the compound to live cells may be compound-dependent, we tested two incubation times, 20 min and 120 min, for the FRET CRC. […] Plates containing eight-point concentration curves of three tool compounds (known SERCA effectors thapsigargin, BHQ, and CPA)[22] were used as positive controls for biosensor function and performance prior to running the full-scale FRET-HTS assay. […]

SERCA2a [2] = target: T2, SERCA2a (Sus scrofa, UniProt P11607); test: NADH-linked Ca2+-ATPase activity assay in pig cardiac SR (pCSR) vesicles; assay type: biochemical; settings: for Ca2+-ATPase C10: concentration yielding 10% effect; for Decrease of ΔFMAX and ΔFMID for Ca2+-ATPase activity: both [Ca2+], stated as size of decrease; for Ca2+-ATPase ΔFMAX / Ca2+-ATPase ΔFMID: maximal compound effect vs DMSO control, pCSR; for Effect on Ca2+-ATPase activity (category, Fig. 4A): activators, categories activate / uncouple / inhibit
T2 construct: Cardiac SR vesicles were isolated from fresh porcine left ventricular tissue using differential centrifugation; from tissue; host or cells: porcine left ventricular tissue (cardiac SR vesicles)
T2 sequence (P11607 1-997 isoform P11607-2): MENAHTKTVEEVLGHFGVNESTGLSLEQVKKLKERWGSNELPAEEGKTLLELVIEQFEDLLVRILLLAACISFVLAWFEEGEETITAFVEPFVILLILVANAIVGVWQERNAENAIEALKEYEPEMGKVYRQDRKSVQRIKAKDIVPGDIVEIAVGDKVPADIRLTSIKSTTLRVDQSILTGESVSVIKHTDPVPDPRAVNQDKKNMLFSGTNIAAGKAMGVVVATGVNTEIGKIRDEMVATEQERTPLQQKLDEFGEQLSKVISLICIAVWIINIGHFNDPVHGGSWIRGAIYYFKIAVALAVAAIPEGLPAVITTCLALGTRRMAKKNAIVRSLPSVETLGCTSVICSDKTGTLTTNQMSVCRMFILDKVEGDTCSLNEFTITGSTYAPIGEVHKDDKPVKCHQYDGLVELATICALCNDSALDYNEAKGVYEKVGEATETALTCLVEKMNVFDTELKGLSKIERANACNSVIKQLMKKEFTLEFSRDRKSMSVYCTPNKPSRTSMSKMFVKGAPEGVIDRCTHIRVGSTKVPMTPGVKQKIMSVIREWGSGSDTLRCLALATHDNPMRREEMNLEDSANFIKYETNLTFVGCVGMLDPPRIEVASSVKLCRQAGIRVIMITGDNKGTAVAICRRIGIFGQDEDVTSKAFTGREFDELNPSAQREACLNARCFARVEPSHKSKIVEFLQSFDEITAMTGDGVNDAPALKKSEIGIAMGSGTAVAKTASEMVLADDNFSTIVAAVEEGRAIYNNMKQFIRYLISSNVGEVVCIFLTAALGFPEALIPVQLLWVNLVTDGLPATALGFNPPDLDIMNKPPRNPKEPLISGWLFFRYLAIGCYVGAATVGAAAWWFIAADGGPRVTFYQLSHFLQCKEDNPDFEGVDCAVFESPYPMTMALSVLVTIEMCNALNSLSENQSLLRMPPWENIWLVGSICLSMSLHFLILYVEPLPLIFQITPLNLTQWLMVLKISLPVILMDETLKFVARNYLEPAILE
Procedure: (§1) Cardiac SR vesicles were isolated from fresh porcine left ventricular tissue using differential centrifugation of the homogenized tissue as previously described. The SR vesicles were flash-frozen and stored at − 80 °C until needed. The SERCA concentration in the ER preparations purified from HEK cell homogenate is at least 10 times less than in purified porcine cardiac SR[20], but there was sufficient expression of the fluorescent SERCA2a biosensor in HEK cells to detect FRET with high precision by FLT[22],[23],[26].
Functional assays were performed using porcine cardiac SR (pCSR) vesicles. An enzyme-coupled, NADH-linked ATPase assay was used to measure SERCA ATPase activity in 384-well microplates. Each well contained 50 mM MOPS (pH 7.0), 100 mM KCl, 1 mM EGTA, 0.2 mM NADH, 1 mM phosphoenol pyruvate, 10 IU/mL of pyruvate kinase, 10 IU/mL of lactate dehydrogenase, 7 µM of the calcium ionophore A23187 (Sigma), and CaCl2 was added to set free [Ca^2+] to three different concentrations. Ca^2+-ATPase activity was measured at three [Ca^2+]: [Ca^2+]MAX (saturating, pCa 5.4), [Ca^2+]MID (subsaturating, midpoint, pCa 6.2), and [Ca^2+]BAS (basal non-activating, pCa 8.0). 10 μg/mL of SR vesicle, calcium, compound (0.048 to 50 μM), and assay mix were incubated for 20 min at room temperature before measurement of functional assays with each of the 18 hit compounds, because a shorter incubation time than the FRET live-cell assays achieved optimal responses. The assay was started upon the addition of MgATP, at a final concentration of 5 mM (total volume to 80 μL), and absorbance was read at 340 nm in a SpectraMax Plus^384 microplate spectrophotometer (Molecular Devices, Sunnyvale, CA).
(§2) SERCA2a activity, F (rate of ATP hydrolysis or Ca^2+ uptake), was measured at varying pCa and varying compound concentration. F measured at [Ca^2+]MAX (saturating, pCa 5.4) or [Ca^2+]MID (subsaturating, midpoint, pCa 6.2) was corrected by subtracting the basal rate at pCa 8.0) and the % effect due to compound was reported. Concentration response curves (CRC) were fitted using the Hill function to determine VMAX (the activity at saturating [compound]), and EC50, the compound concentration at 50% effect.

SERCA2a [3] = target: T2, SERCA2a; test: Oxalate-supported Fluo-4 Ca2+-uptake (Ca2+-transport) assay in pig cardiac SR (pCSR) vesicles; assay type: biochemical; settings: for Ca2+-Uptake C10: concentration yielding 10% effect; for Decrease of ΔFMAX and ΔFMID for Ca2+-uptake: both [Ca2+], stated as size of decrease; for CR (coupling ratio) VU/VA: maximum Ca2+-uptake rate / Ca2+-ATPase rate at [Ca2+]MAX, DMSO control = 0.66; for Ca2+-Uptake ΔFMAX / Ca2+-Uptake ΔFMID: maximal compound effect vs DMSO control, pCSR; for Effect on Ca2+-uptake (category, Fig. 4A): activators, categories activate / uncouple / inhibit; for Increase in Ca2+-uptake: over [Ca2+]MAX and [Ca2+]MID
Procedure: as §1
Ca^2+-transport assays were performed with similar porcine SR samples as in the Ca^2+-ATPase assays described above. The compound effect on the Ca^2+-transport activity of SERCA2a was determined using an oxalate-supported assay in which the change in fluorescence in a Ca^2+-sensitive dye, Fluor-4, was determined as previously described. A buffered solution containing 50 mM MOPS (pH 7.0), 100 mM KCl, 30 mg/mL sucrose, 1 mM EGTA, 10 mM potassium oxalate, 2 µM Fluo-4, 30 µg/mL porcine cardiac SR vesicles, CaCl2 calculated to reach the free [Ca^2+] (pCa 8.0, 6.2, and 5.4), and compound (0.048 to 50 μM) was dispensed into 384-well black walled, transparent bottomed plates (Greiner Bio-One) containing the tested small molecule and incubated at 22℃ for 20 min while covered and protected from light. To start the reaction, MgATP was added to a final concentration of 5 mM, and the decrease in 485-nm excited fluorescence of Fluo-4 was monitored at 520 nm for 15 min using a FLIPR Tetra (Molecular Devices, San Jose, CA).
as §2

Compound | EC50 [1] [µM] | Ca2+-ATPase C10 (SERCA2a [2]; [Ca2+]MAX (pCa5.4)) [µM] | Ca2+-ATPase C10 (SERCA2a [2]; [Ca2+]MID (pCa6.2)) [µM] | Ca2+-Uptake C10 (SERCA2a [3]; [Ca2+]MAX (pCa5.4)) [µM] | Ca2+-Uptake C10 (SERCA2a [3]; [Ca2+]MID (pCa6.2)) [µM] | CR (coupling ratio) VU/VA (SERCA2a [3]) | Ca2+-ATPase ΔFMAX (SERCA2a [2]; [Ca2+]MAX (pCa5.4)) | Ca2+-ATPase ΔFMID (SERCA2a [2]; [Ca2+]MID (pCa6.2)) | Effect on Ca2+-ATPase activity (category, Fig. 4A) (SERCA2a [2]) | Ca2+-Uptake ΔFMID (SERCA2a [3]; [Ca2+]MID (pCa6.2)) | Effect on Ca2+-uptake (category, Fig. 4A) (SERCA2a [3]) | further results
CCC(C)(C)c1nnc(NC(=O)NCc2ccc(F)cc2F)s1 [Compound 15, N-(2,4-difluorobenzyl)-N'-[5-(1,1-dimethylpropyl)-1,3,4-thiadiazol-2-yl]urea] | 16 ± 4.7 | 0.7 | 0.4 | 0.9 | 1.7 | 0.19 |  |  |  |  |  | Decrease of ΔFMAX and ΔFMID for Ca2+-ATPase activity (SERCA2a [2]): ~ 50%; Decrease of ΔFMAX and ΔFMID for Ca2+-uptake (SERCA2a [3]): 70–95%
O=C(c1cc(COc2ccc3ncccc3c2)on1)N1CCC(c2ccncc2)CC1 [Compound 2, 6-[(3-{[4-(4-pyridinyl)-1-piperidinyl]carbonyl}-5-isoxazolyl)methoxy]quinoline] | 1.4 ± 0.5 | 48 |  |  |  | 0.53 | 16% and 16 ± 3% | 7% and 7 ± 3% | activate | 4 ± 2.1% | uncouple | Ca2+-Uptake ΔFMAX (SERCA2a [3]; [Ca2+]MAX (pCa5.4)): 4 ± 6.1%; Increase in Ca2+-uptake (SERCA2a [3]): 0.5–10%
COC(=O)CSc1ncc(-c2ccc(F)cc2)c(C2CCCN(C(=O)c3cccc(F)c3)C2)n1 (stereo not shown) [Compound 11, methyl {[4-[1-(3-fluorobenzoyl)-3-piperidinyl]-5-(4-fluorophenyl)-2-pyrimidinyl]thio}acetate] | 14 ± 6.4 | 0.8 | 1.2 | 0.2 | 0.5 | 0.13 |  |  |  |  |  | EC50 (SERCA2a [2]; [Ca2+]MAX (pCa5.4)): 3.2 ± 0.4 µM; EC50 (SERCA2a [2]; [Ca2+]MID (pCa6.2)): 3.6 ± 0.5 µM; EC50 (SERCA2a [3]; [Ca2+]MAX (pCa5.4)): 1.8 ± 0.04 µM; EC50 (SERCA2a [3]; [Ca2+]MID (pCa6.2)): 2.8 ± 0.1 µM
CC1Cc2cc(CNC(=O)c3cc(C(C)C)nn3C)ccc2O1 (stereo not shown) [Compound 9, 3-isopropyl-1-methyl-N-[(2-methyl-2,3-dihydro-1-benzofuran-5-yl)methyl]-1H-pyrazole-5-carboxamide] | 0.6 ± 0.1 | 30.7 |  |  |  | 0.51 | 21% and 21 ± 5% | 10% and 10 ± 6% | activate | 3 ± 2.4% | uncouple | EC50 (SERCA2a [2]; [Ca2+]MAX (pCa5.4)): 24 ± 9 µM; Ca2+-Uptake ΔFMAX (SERCA2a [3]; [Ca2+]MAX (pCa5.4)): 5 ± 2.2%; Increase in Ca2+-uptake (SERCA2a [3]): 3–5% and 0.5–10%
Cc1nc(N2CCCCCCC2)ncc1C(C)NC(=O)c1ccnn1C (stereo not shown) [Compound 18, N-{1-[2-(1-azocanyl)-4-methyl-5-pyrimidinyl]ethyl}-1-methyl-1H-pyrazole-5-carboxamide] | 3 ± 0.3 | 2.2 | 1 | 8.6 | 22.7 | 0.49 |  |  |  |  |  | EC50 (SERCA2a [2]; [Ca2+]MID (pCa6.2)): 0.18 ± 0.2 µM; Inhibition of Ca2+-uptake (class) (SERCA2a [3]; strong / moderate / mild): Mild → M; also recorded: mild-to-moderate
COc1ccc(Cc2noc(CN3CCN(c4nc5ccccc5s4)CC3)n2)cc1OC [Compound 5, 2-(4-{[3-(3,4-dimethoxybenzyl)-1,2,4-oxadiazol-5-yl]methyl}-1-piperazinyl)-1,3-benzothiazole] | 1.5 ± 0.1 | 22.7 | 19.6 |  | 22.5 | 0.47 | 25% and 25 ± 3.3% | 35% and 35 ± 8.2% | activate | 20% and 20 ± 3.3% | inhibit | Increase in Ca2+-ATPase activity (SERCA2a [2]): 10–25%; Decrease (inhibition) of Ca2+-uptake at [Ca2+]MAX (SERCA2a [3]; [Ca2+]MAX, size of decrease): 2%
O=S(=O)(NCc1ccccc1)N1CCc2ccc(C(F)(F)F)cc2C1 [Compound 17, N-benzyl-7-(trifluoromethyl)-3,4-dihydroisoquinoline-2(1H)-sulfonamide] | 32 ± 5.3 | 6.2 | 5 | 1 | 2.2 | 0.09 |  |  |  |  |  | Decrease of ΔFMAX and ΔFMID for Ca2+-ATPase activity (SERCA2a [2]): ~ 50%; Decrease of ΔFMAX and ΔFMID for Ca2+-uptake (SERCA2a [3]): 70–95%

From publication PMC10314922, “Fluorescence lifetime FRET assay for live-cell high-throughput screening of the cardiac SERCA pump yields multiple classes of small-molecule allosteric modulators” (Scientific Reports, 2023)
